The values below are quoted from earlier work in US20250195566A1, “ORAL PHARMACEUTICAL COMPOSITION FOR PREVENTING AND/OR TREATING DISEASES OF THE SOFT AND HARD TISSUES SURROUNDING THE TOOTH IN THE ORAL CAVITY” (priority 2021, published 2025).

SMILES strings stand for the structures.

Data set [1] has as its system 52 bacteria isolated from subgingival plaque. Conditions: bacteria isolated from patients with periodontitis.
Data set [2] relates to supragingival bacterial plaque and gingival inflammation. To be noted: clinical results.

In the case of `N=C(NCCCCCCNC(=N)NC(=N)Nc1ccc(Cl)cc1)NC(=N)Nc1ccc(Cl)cc1` [chlorhexidine, Chlorhexidine], in data set [1], the “concentration at which all bacteria were inhibited” value is on record as 250 mg/mL. In data set [2], the “reduction of gingival inflammation” value is on record as 45% and the “reduction of supragingival bacterial plaque” value is reported as 55%.
